Among the data in US20100184799A1, “OXADIAZOLE BETA CARBOLINE DERIVATIVES AS ANTIDIABETIC COMPOUNDS” (priority 2009, published 2010) are EC50 and Ki values, retold here.

One may read the EC50 as the concentration giving half of the maximal effect. The term Ki denotes the dissociation constant of the complex between target and ligand, obtained from inhibition or displacement.

Assay [1] concerns the target T1, SSTR3 (Homo sapiens, UniProt P32745). Briefly: SSTR3 functional antagonist assay: cAMP production with FSK + SS-14 in SSTR3 stable CHO cells. Further details: […]. In kind it is cell-based, human or mouse. The following applies: […] FSK + 100 nM SS-14. The protocol:
The effects of compounds that bind to human and murine SSTR3 with various affinities on the functional activity of the receptor were assessed by measuring cAMP production in the presence of Forskolin (FSK) along or FSK plus SS-14 in SSTR3 expressing CHO cells. FSK acts to induce cAMP production in these cells by activating adenylate cyclases, whereas SS-14 suppresses cAMP production in the SSTR3 stable cells by binding to SSTR3 and the subsequent inhibition of adenylate cyclases via an alpha subunit of GTP-binding protein (Gαi).
The amount of cAMP produced during the incubation was also quantified with the Lance cAMP assay. […] The % Inhibition of each compound was calculated using the following formula:
% Inhibition=[1−(unknown cAMP/FSK+SS-14 cAMP)]×100
On the technique in general: Cyclic AMP is a second messenger, typically raised through Gs and lowered through Gi signalling.

In assay [2] the target is T1, SSTR3. Briefly: SSTR3 receptor-ligand binding assay, (3-125I-Tyr11)-SRIF-14 radioligand, CHO-K1 cell membranes. The settings on record: cloned human SSTR3, CHO-K1 membranes, 0.1 nM radioligand. Details: expressed in transfected cells; membranes used. As for the experimental part:
The receptor-ligand binding assays of all 5 subtype of SSTRs were performed with membranes isolated from Chinese hamster ovary (CHO)—K1 cells stably expressing the cloned human somatostatin receptors in 96-well format as previous reported.
The stable cell lines for SSTR1-SSTR5 were developed by stably transfecting with DNA for all five SSTRs using Lipofectamine. […] The assay buffer consisted of 50 mM TrisHCl (pH 7.8) with 1 mM EGTA, 5 mM MgCl2, leupeptin (10 μg/mL), pepstatin (10 μg/mL), bacitracin (200 μg/mL), and aprotinin (0.5 μg/mL). CHO—K1 cell membranes, radiolabeled somatostatin, and unlabeled test compounds were resuspended or diluted in this assay buffer. Unlabeled test compounds were examined over a range of concentrations from 0.01 nM to 10,000 nM.

T1 sequence (P32745 whole entry): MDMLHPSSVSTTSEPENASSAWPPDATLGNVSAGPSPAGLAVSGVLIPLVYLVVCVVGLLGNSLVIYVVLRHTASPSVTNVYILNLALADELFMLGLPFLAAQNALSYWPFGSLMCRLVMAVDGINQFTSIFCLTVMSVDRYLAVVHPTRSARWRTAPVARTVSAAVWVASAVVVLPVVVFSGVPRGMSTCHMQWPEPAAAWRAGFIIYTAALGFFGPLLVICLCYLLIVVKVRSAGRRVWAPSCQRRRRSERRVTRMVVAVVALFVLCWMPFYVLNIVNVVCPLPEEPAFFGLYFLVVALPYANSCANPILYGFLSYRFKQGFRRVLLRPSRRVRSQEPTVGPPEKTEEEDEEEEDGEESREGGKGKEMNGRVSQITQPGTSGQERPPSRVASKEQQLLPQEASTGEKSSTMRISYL

Turning to `Oc1nnc(C2(c3ccccc3)N[C@@H](c3nc(-c4ccc(F)cc4)c[nH]3)Cc3c2[nH]c2ccccc32)o1` (mixture of isomers) [Example 10], the EC50 at SSTR3 [1] worked out at 10.7 nM. Moreover, the Ki at SSTR3 [2] was 3.3 nM. The corresponding values for `N#Cc1ccc(C2(c3nnc(O)o3)N[C@@H](c3nc(-c4ccc(F)cc4)c[nH]3)Cc3c2[nH]c2ccccc32)cc1` (mixture of isomers) [Example 13] are 18.9 nM and 9.2 nM.

With `CCn1cc(C2(c3nnc(O)o3)NC(c3nc(-c4ccc(F)cc4)c[nH]3)Cc3c2[nH]c2ccccc32)cn1` (mixture of isomers) [Example 35], the EC50 at SSTR3 [1] worked out at 1.8 nM. `CCn1cc(C2(c3nn(C)c(=O)o3)N[C@@H](c3nc(-c4ccc(F)cc4)c[nH]3)Cc3c2[nH]c2ccccc32)cn1` (mixture of isomers) [Example 36]: on SSTR3 [1], the EC50 is 1.9 nM. The molecule also yielded a Ki at SSTR3 [2] of 1.1 nM. For `Cc1nc(C2(c3nnc(O)o3)NC(c3nc(-c4ccc(F)cc4)c[nH]3)Cc3c2[nH]c2ccccc32)no1` (mixture of isomers) [Example 38], the EC50 at SSTR3 [1] was 24.6 nM. On the same count and under the same terms, with `Cc1nc(C2(c3nnc(N)o3)NC(c3nc(-c4ccc(F)cc4)c[nH]3)Cc3c2[nH]c2ccccc32)no1` (mixture of isomers) [Example 56] the figure was 17.8 nM. Same read-out and setting: in the case of `CSc1nnc(C2(c3cnn(C)c3)NC(c3nc(-c4ccc(F)cn4)c[nH]3)Cc3c2[nH]c2ccccc32)o1` (mixture of isomers) [Example 57] it was 0.8 nM.

As to `Cn1nc(C2(c3ccccc3)N[C@@H](c3nc(-c4ccc(F)cc4)c[nH]3)Cc3c2[nH]c2ccccc32)oc1=O` (single isomer, unassigned) [Example 1], the EC50 on SSTR3 [1] amounted to 3.8 nM. This molecule gave a Ki on SSTR3 [2] of 0.8 nM. The matching figures for `Cn1nc(C2(c3ccccc3)N[C@@H](c3nc(-c4ccc(F)cc4)c[nH]3)Cc3c2[nH]c2ccccc32)oc1=O` (single isomer, unassigned) [Example 2]: 29.1 nM and 31.4 nM. The corresponding values for `CCn1nc(C2(c3noc(C)n3)N[C@@H](c3nc(-c4ccc(F)cn4)c[nH]3)Cc3c2[nH]c2ccccc32)oc1=O` (single isomer, unassigned) [Example 8] are 18 nM and 23.7 nM.

For the molecule `CCn1nc(C2(c3noc(C)n3)N[C@@H](c3nc(-c4ccc(F)cn4)c[nH]3)Cc3c2[nH]c2ccccc32)oc1=O` (single isomer, unassigned) [Example 9], the EC50 on SSTR3 [1] is 2.6 nM. The molecule also gave a Ki at SSTR3 [2] of 4.2 nM. The corresponding values for `Cn1nc(C2(c3ccccc3)NC(c3nc(-c4ccc(F)cn4)c[nH]3)Cc3c2[nH]c2ccccc32)oc1=O` (single isomer, unassigned) [Example 11] are 74.1 nM and 52.2 nM. The corresponding values for `Cn1nc(C2(c3ccccc3)NC(c3nc(-c4ccc(F)cn4)c[nH]3)Cc3c2[nH]c2ccccc32)oc1=O` (single isomer, unassigned) [Example 12] are 5.9 nM and 1.2 nM. The corresponding values for `Cn1nc(C2(c3ccc(C#N)cc3)NC(c3nc(-c4ccc(F)cc4)c[nH]3)Cc3c2[nH]c2ccccc32)oc1=O` (single isomer, unassigned) [Example 14] are 5.4 nM and 1.2 nM. In the case of `Cn1nc(C2(c3ccc(C#N)cc3)NC(c3nc(-c4ccc(F)cc4)c[nH]3)Cc3c2[nH]c2ccccc32)oc1=O` (single isomer, unassigned) [Example 15], at SSTR3 [1], the EC50 came out at 30.5 nM. On SSTR3 [2], this molecule showed a Ki of 2 nM. Regarding `CCn1nc(C2(c3ccc(C#N)cc3)N[C@@H](c3nc(-c4ccc(F)cn4)c[nH]3)Cc3c2[nH]c2ccccc32)oc1=O` (single isomer, unassigned) [Example 16], the EC50 at SSTR3 [1] turned out to be 11 nM. On the same count and under the same terms, with `CCn1nc(C2(c3ccc(C#N)cc3)N[C@@H](c3nc(-c4ccc(F)cn4)c[nH]3)Cc3c2[nH]c2ccccc32)oc1=O` (single isomer, unassigned) [Example 17] the figure was 25.6 nM.

As for `Cn1cc(C2(c3nnc(O)o3)N[C@@H](c3nc(-c4ccc(F)cc4)c[nH]3)Cc3c2[nH]c2ccccc32)cn1` (single isomer, unassigned) [Example 18], the EC50 at SSTR3 [1] was found to be 1.1 nM.

As for `Cn1cc(C2(c3nnc(O)o3)N[C@@H](c3nc(-c4ccc(F)cc4)c[nH]3)Cc3c2[nH]c2ccccc32)cn1` (single isomer, unassigned) [Example 19], the EC50 on SSTR3 [1] was 47.5 nM. Still for that read-out and setting: with `Cn1cc(C2(c3nnc(O)o3)N[C@@H](c3nc(-c4ccc(F)cn4)c[nH]3)Cc3c2[nH]c2ccccc32)cn1` (single isomer, unassigned) [Example 20] the figure was 680 nM; with `Cn1cc(C2(c3nn(C)c(=O)o3)N[C@@H](c3nc(-c4ccc(F)cc4)c[nH]3)Cc3c2[nH]c2ccccc32)cn1` (single isomer, unassigned) [Example 22], 6.1 nM. Regarding `Cn1cc(C2(c3nn(C)c(=O)o3)N[C@@H](c3nc(-c4ccc(F)cc4)c[nH]3)Cc3c2[nH]c2ccccc32)cn1` (single isomer, unassigned) [Example 23], the EC50 at SSTR3 [1] came out at 2.3 nM. The molecule also displayed a Ki on SSTR3 [2] of 1.2 nM.

With `CCOC(=O)Cn1nc(C2(c3cnn(CC)c3)N[C@@H](c3nc(-c4ccc(F)cn4)c[nH]3)Cc3c2[nH]c2ccccc32)oc1=O` (single isomer, unassigned) [Example 34], the EC50 on SSTR3 [1] is 0.5 nM. The molecule further came in with a Ki at SSTR3 [2] of 0.9 nM.

Regarding `Oc1nnc(C2(c3cnn(C4CC4)c3)N[C@@H](c3nc(-c4ccc(F)cn4)c[nH]3)Cc3c2[nH]c2ccccc32)o1` (single isomer, unassigned) [Example 37], the EC50 on SSTR3 [1] stood at 0.6 nM. With `COCc1nc(C2(c3nnc(O)o3)N[C@@H](c3nc(-c4ccc(F)cn4)c[nH]3)Cc3c2[nH]c2ccccc32)no1` (single isomer, unassigned) [Example 39], the EC50 at SSTR3 [1] stood at 12.5 nM. On the same count and under the same terms, in the case of `CCn1nc(C2(c3noc(COC)n3)N[C@@H](c3nc(-c4ccc(F)cn4)c[nH]3)Cc3c2[nH]c2ccccc32)oc1=O` (single isomer, unassigned) [Example 40] it was 3 nM; in that of `CCn1nc(C2(c3noc(COC)n3)N[C@@H](c3nc(-c4ccc(F)cn4)c[nH]3)Cc3c2[nH]c2ccccc32)oc1=O` (single isomer, unassigned) [Example 41], 19 nM; in that of `COCc1nc(C2(c3nn(C)c(=O)o3)N[C@@H](c3nc(-c4ccc(F)cn4)c[nH]3)Cc3c2[nH]c2ccccc32)no1` (single isomer, unassigned) [Example 42], 3.2 nM.

Take `Cn1nnc(C2(c3nnc(O)o3)N[C@@H](c3nc(-c4ccc(F)cn4)c[nH]3)Cc3c2[nH]c2ccccc32)n1` (single isomer, unassigned) [Example 43]: at SSTR3 [1], the concentration giving a half-maximal response (EC50) worked out at 1070 nM. Still for that read-out and setting: in the case of `CCn1nnc(C2(c3nnc(O)o3)N[C@@H](c3nc(-c4ccc(F)cn4)c[nH]3)Cc3c2[nH]c2ccccc32)n1` (single isomer, unassigned) [Example 44] it was 2000 nM; in that of `CCn1nnc(C2(c3nnc(O)o3)N[C@@H](c3nc(-c4ccc(F)cn4)c[nH]3)Cc3c2[nH]c2ccccc32)n1` (single isomer, unassigned) [Example 45], 32.6 nM; in that of `CCn1nnc(C2(c3nn(C)c(=O)o3)N[C@@H](c3nc(-c4ccc(F)cn4)c[nH]3)Cc3c2[nH]c2ccccc32)n1` (single isomer, unassigned) [Example 46], 21.4 nM. For the molecule `CCn1nnc(C2(c3nn(C)c(=O)o3)N[C@@H](c3nc(-c4ccc(F)cn4)c[nH]3)Cc3c2[nH]c2ccccc32)n1` (single isomer, unassigned) [Example 47], on SSTR3 [1], the EC50 was determined as 74.4 nM. Same read-out and setting: with `CCn1nc(C2(c3nnn(C)n3)N[C@@H](c3nc(-c4ccc(F)cn4)c[nH]3)Cc3c2[nH]c2ccccc32)oc1=O` (single isomer, unassigned) [Example 48] the figure was 63.4 nM.

As to `Cn1cc(C2(c3nnc(N)o3)N[C@@H](c3nc(-c4ccc(F)cc4)c[nH]3)Cc3c2[nH]c2ccccc32)cn1` (single isomer, unassigned) [Example 52], the concentration giving a half-maximal response (EC50) on SSTR3 [1] turned out to be 8 nM. The molecule also registered a Ki at SSTR3 [2] of 13.3 nM. `Cn1cc(C2(c3nnc(N)o3)N[C@@H](c3nc(-c4ccc(F)cc4)c[nH]3)Cc3c2[nH]c2ccccc32)cn1` (single isomer, unassigned) [Example 53]: on SSTR3 [1], the EC50 turned out to be 0.2 nM. Same read-out and setting: in the case of `Cn1nc(C2(c3cnn(C4CC4)c3)N[C@@H](c3nc(-c4ccc(F)cn4)c[nH]3)Cc3c2[nH]c2ccccc32)oc1=O` (single isomer, unassigned) [Example 59] it was 0.8 nM.

As for `CSc1nnc(C2(c3cnn(C)c3)N[C@@H](c3nc(-c4ccc(F)cc4)c[nH]3)Cc3c2[nH]c2ccccc32)o1` (some centres unmarked) [Example 58], on SSTR3 [1], the EC50 amounted to 1.9 nM. The same molecule registered a Ki at SSTR3 [2] of 0.9 nM.
